Test results reported in PubChem BioAssay (NCI).
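Test compounds were applied to cells in 96-well plates for 48 hours at 5 doses. The concentration for 50% growth inhibition is given as GI50. At the TGI there is no net growth.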

Legend:
Experiment in all cases: growth of human tumour cells (NCI), 48 h
[1] = test system: COLO 205 colon
[2] = test system: HCT-116 colon
[3] = test system: HOP-92 NSCLC
[4] = test system: NCI/ADR-RES ovarian
[5] = test system: RXF 393 renal
[6] = test system: SK-MEL-2 melanoma
[7] = test system: SNB-19 CNS
[8] = test system: T-47D breast
[9] = test system: UACC-257 melanoma
[10] = test system: NCI-H226 lung

SMILES | GI50 [1] | TGI [1] | GI50 [2] | TGI [2] | GI50 [3] | TGI [3] | GI50 [4] | TGI [4] | GI50 [5] | TGI [5] | GI50 [6] | TGI [6] | GI50 [7] | TGI [7] | GI50 [8] | TGI [8] | GI50 [9] | TGI [9] | TGI [10] | GI50 [10]
CCCCCC[C@H](C)Nc1nc2ccccc2c2occc12 | 34.4 µM | > 100 µM | 3.2 µM | 13.3 µM | 5.18 µM | 20.2 µM | 0.147 µM | 12.8 µM | 12.6 µM | 30.6 µM | 14.8 µM | 32.6 µM | 29.7 µM | > 100 µM | 33.2 µM | 61.8 µM | 3.24 µM | 16.3 µM |  | 
CC(C)CCCC(C)[C@H]1CCC2[C@@H]3CCC4Nc5c(cnn5-c5ccccc5)C[C@]4(C)C3CC[C@@]21C (some centres undefined) |  | 42 µM |  | > 100 µM |  |  |  |  |  | 8.8 µM |  | > 100 µM |  | 63.1 µM |  |  |  | > 100 µM | > 100 µM | 
COC(=O)c1c2c(cc3c1CC1(Cc4cc5c(c(C(C)=O)c4C1)CCC5)C3)CCC2 (centres undefined) |  | > 100 µM |  | > 100 µM |  | > 100 µM |  |  |  | 95.7 µM |  |  |  | > 100 µM |  |  |  | > 100 µM |  | 
O=S(=O)(NCn1ccc2ccccc21)c1ccccc1 |  | > 100 µM |  | > 100 µM |  | > 100 µM |  |  |  | > 100 µM |  | > 100 µM |  | > 31.6 µM |  |  |  | > 100 µM | > 100 µM | 
CC(=O)OCC(=O)[C@@]12OC(C)(C)O[C@@H]1C[C@H]1[C@@H]3CC(C=O)=C4C=C(OCCCl)CC[C@]4(C)[C@@]3(F)[C@@H](O)C[C@@]12C |  | 34.9 µM |  | 27.4 µM |  | 90.2 µM |  |  |  | 21.6 µM |  | 58.6 µM |  | > 100 µM |  |  |  | 80.6 µM | 64.8 µM | 
CC(=O)O[C@]1(C)OC(=O)[C@@H](CC(C)C)N1[N+](=O)[O-] |  | > 100 µM |  | > 100 µM |  |  |  |  |  | > 100 µM |  | > 100 µM |  | > 100 µM |  |  |  | > 100 µM | > 100 µM | 
Cc1nn2c(/C=C3/C(=O)Nc4cc(Cl)ccc43)c(-c3ccccc3)nc2s1 | 74.4 µM | > 100 µM | 1.85 µM | 3.46 µM |  |  | 3.54 µM | > 100 µM | 2.27 µM | 5.97 µM | 7.07 µM | 46.7 µM | 10.7 µM | > 100 µM | 1.75 µM | 4.04 µM | 2.65 µM | 8.32 µM | 63.7 µM | 4.56 µM
Cc1cc(N=C2C=C(Br)C(=O)C(Br)=C2)cc(CN(CC(=O)O)CC(=O)O)c1O |  | > 100 µM |  | > 100 µM |  |  |  | > 100 µM |  | > 100 µM |  | > 100 µM |  | > 100 µM |  | > 100 µM |  | > 100 µM | > 100 µM | 
NNC(=O)C(=O)N/N=C1\CCC(=O)CC1C(=O)CCC(=O)Nc1ccc(Cl)cc1 (centres undefined) |  | > 100 µM |  | > 100 µM |  |  |  |  |  | > 100 µM |  | > 100 µM |  | > 100 µM |  |  |  | > 100 µM | > 100 µM | 
CCOC(=O)CCn1ncc(Cl)c(Cl)c1=O |  | 25.6 µM |  | 24.2 µM |  | 26.2 µM |  |  |  | 29 µM |  | 26.4 µM |  | 26.7 µM |  |  |  | 26.5 µM | 25.3 µM | 
C[Si](C)(C)/C=C\CCO |  | > 100 µM |  | > 100 µM |  | > 100 µM |  |  |  | > 100 µM |  | > 100 µM |  | > 100 µM |  |  |  | > 100 µM |  | 
C=CCO/N=C(\OC(=O)c1ccc([N+](=O)[O-])cc1)c1ccccc1 |  | > 100 µM |  |  |  | > 100 µM |  |  |  |  |  | > 100 µM |  | > 100 µM |  |  |  |  | > 100 µM | 
COc1cc2c(cc1OC)C(=O)/C(=C/c1cc(-c3ccc4c(c3)OCO4)n[nH]1)C2 | 1.7 µM | 3.11 µM | 1.03 µM | 2.55 µM |  |  | 2.25 µM | 6.87 µM | 1.54 µM | 3.19 µM |  |  | 1.55 µM | 2.96 µM | 1.31 µM | 2.72 µM | 1.71 µM | 3.13 µM |  | 
O=C1/C(=C/c2ccccc2)CN(C(=O)CCN2CCCC2)C/C1=C\c1ccccc1 |  | 3.25 µM |  | 0.674 µM |  | 14.8 µM |  |  |  | 5.24 µM |  | 8.41 µM |  | 6.69 µM |  | 5.61 µM |  | 6.65 µM | 13.9 µM | 
N.N.N.N.N.O=[N+]([O-])[O-].[Co+3].[O-][Cl+3]([O-])([O-])[O-] | > 100 µM | > 100 µM | > 100 µM | > 100 µM | > 100 µM | > 100 µM |  |  |  |  | > 100 µM | > 100 µM | > 100 µM | > 100 µM |  |  | > 100 µM | > 100 µM |  | 
C#Cc1c(C)c(/C=C/C(C)=C/C(=O)OC)n(C)c1C |  | > 100 µM |  | > 100 µM |  | 85.1 µM |  |  |  |  |  |  |  | > 100 µM |  |  |  | > 100 µM | > 100 µM | 
CC(C)(C)OC(=O)NCCCn1c2c(c3ccccc3c1=O)C(=O)c1ccccc1-2 | > 100 µM | > 100 µM | 4.71 µM | 17.8 µM | 12.5 µM | 43.5 µM | 6.69 µM | 98.6 µM |  |  | 49.3 µM | > 100 µM | 12.1 µM | 29.6 µM | 29.6 µM | > 100 µM | 75.4 µM | > 100 µM | > 100 µM | 63.5 µM
COc1ccc(CCc2cc(OC)cc(OC)c2)cc1 |  | > 60.5 µM |  | > 100 µM |  | > 100 µM |  |  |  | 63.8 µM |  | > 62 µM |  | > 100 µM |  |  |  | > 100 µM | > 100 µM | 
O=c1[nH]c2ccccc2n1CCCN1CCC(n2c(=O)[nH]c3cc(Cl)ccc32)CC1 |  | 27.9 µM |  | 31.4 µM |  | 58.2 µM |  | 60.8 µM |  | 29.9 µM |  | 35.7 µM |  |  |  | 37.3 µM |  | 30.6 µM | 45 µM | 
O=C(O)CCNCCCCNCCC(=O)O |  | > 100 µM |  | > 100 µM |  | > 100 µM |  |  |  | > 100 µM |  | > 100 µM |  | > 100 µM |  |  |  |  | > 100 µM | 
COc1ccc(C(=O)NNc2nc(Cl)nc(N3CCN(C(c4ccccc4)c4ccccc4)CC3)n2)cc1 | 3.21 µM | 13.4 µM | 1.74 µM | 3.22 µM | 1.61 µM | 3.55 µM |  |  | 1.83 µM | 3.84 µM | 2.14 µM | 4.91 µM | 1.84 µM | 3.54 µM | 64 µM | > 100 µM | 2.84 µM | 9.06 µM | 45.1 µM | 18.9 µM
